Assay results as given in US10718760B2, “Method for drug binding analysis in a tissue sample” (Treat4Life AB, priority 2015, dated 2020).

Target: BRAF target protein with V600E mutation (Homo sapiens, UniProt P15056, V600E)
Test: MALDI-MSI displacement competitive binding on malignant melanoma tissue sections
Details: for Isotope Signal: 1 hour, MS/MS m/z 389.1
Description: (1) Making 10 micrometer sectioning of the frozen Human Malignant Melanoma tissues performed at −20° C. Thereafter, (2) sample preparation was preformed by slowly thawing and drying the tumor sections at room temperature. Then, the sections were immersed into methanol for 5 min and dried at room temperature. Correspondingly, frozen Human healthy tissue resected from lymphoid nodes were handled in the same way, and used as negative controls. (3) Drug incubation was performed for one hour by using unlabeled ligand, here Vemurafenib, at a concentration of 100 nM (nanomolar) to determine the binding of the ligand molecule to its protein target. […] During titration experiments, the concentration of stable isotope labeled Vemurafenib was 100 nM, 1 μM, 10 μM and 100 μM, (micro Molar), respectively. (4) After incubation, the sections were washed by PBS 3 times and then followed by washing with MilliQ water 3 consecutive times, and (5) mass spectra were obtained using a MALDI LTQ-Orbitrap XL instrument (Thermo Scientific, Germany), and compound signals were obtained by the orbitrap and ion trap. Image analysis was conducted using ImageQuest (Thermo Scientific, Germany). For histological analysis, both H&E staining and immuno-histochemical analysis using monoclonal antibody against BRAF V600E were conducted.
The frozen Human Malignant Melanoma tissues were resected from lymphoid nodes, constituting the tumor tissue. The tissue sections were sections with 10 μm (micro meter) slices thick by the use of a cryostat, performed at −20° C. After sectioning, the slices were slowly thawed and dried at room temperature. Then, the sections were immersed into methanol for 5 min and dried at room temperature. Correspondingly, frozen Human healthy tissue resected from lymphoid nodes was used as negative controls.
Incubation was made for one hour by using unlabeled Vemurafenib at a concentration of 100 nM (nanomolar) to determine the binding of the drug molecule to its protein target. […] The incubation time during competitive binding was 1 hour. […] During titration experiments, the concentration of stable isotope labeled Vemurafenib was 100 nM, 1 μM, 10 μM and 100 μM, (micro Molar), respectively.
After incubation, the sections were washed by PBS 3 times and then followed by washing with MilliQ water 3 consecutive times.
The mass spectra were obtained using a MALDI LTQ-Orbitrap XL instrument (Thermo Scientific, Germany). The compound signals were obtained by the orbitrap and ion trap. Image analysis was conducted using ImageQuest (Thermo Scientific, Germany). For histological analysis, both H&E staining and immuno-histochemical analysis using monoclonal antibody against BRAF V600E were conducted.
Binding intensity was calculated by identifying the area of biding from the mass spec image and the intensity read is calculated by the ImageQuest software of the instrument from the signal and background data.

BRAF target protein with V600E mutation, sequence (P15056 whole entry V600E): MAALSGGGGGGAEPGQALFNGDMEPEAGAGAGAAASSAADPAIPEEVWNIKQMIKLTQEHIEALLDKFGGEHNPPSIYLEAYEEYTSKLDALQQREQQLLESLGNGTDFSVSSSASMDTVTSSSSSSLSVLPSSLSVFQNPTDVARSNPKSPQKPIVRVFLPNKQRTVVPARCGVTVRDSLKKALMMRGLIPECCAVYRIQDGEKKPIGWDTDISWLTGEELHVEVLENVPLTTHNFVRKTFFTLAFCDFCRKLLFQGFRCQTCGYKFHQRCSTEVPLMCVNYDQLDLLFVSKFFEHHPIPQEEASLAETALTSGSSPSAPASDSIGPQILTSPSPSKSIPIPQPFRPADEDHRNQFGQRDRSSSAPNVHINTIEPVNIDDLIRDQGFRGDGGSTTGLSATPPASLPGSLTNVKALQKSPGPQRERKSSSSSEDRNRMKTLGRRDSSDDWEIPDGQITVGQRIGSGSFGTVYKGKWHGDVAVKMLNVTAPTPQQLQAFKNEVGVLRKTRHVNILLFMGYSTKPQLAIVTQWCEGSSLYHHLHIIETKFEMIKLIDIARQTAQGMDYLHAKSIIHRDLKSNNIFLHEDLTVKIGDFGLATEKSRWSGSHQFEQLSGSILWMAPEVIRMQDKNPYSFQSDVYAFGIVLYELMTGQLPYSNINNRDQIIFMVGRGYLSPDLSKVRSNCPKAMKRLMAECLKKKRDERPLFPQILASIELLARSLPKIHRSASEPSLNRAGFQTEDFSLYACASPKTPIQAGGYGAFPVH

Isotope Signal (0.1 μM ^13C-Vemurafenib co-incubated with 100 nM Vemurafenib): 326
Competition with 100 nM Vemurafenib (1 μM ^13C-Vemurafenib co-administered, m/z 389.1, V600E patient tissue): outcompeting the 100 nM Vemurafenib
Isotope Signal (1 μM ^13C-Vemurafenib co-incubated with 100 nM Vemurafenib): 3233
Isotope Signal (10 μM ^13C-Vemurafenib co-incubated with 100 nM Vemurafenib): 29870
Isotope Signal (100 μM ^13C-Vemurafenib co-incubated with 100 nM Vemurafenib): 259400
Substance: ^13C-Vemurafenib
